The target in test [1] is T1, human TNFR1 extracellular domain (ECD) protein (Homo sapiens, UniProt P19438).
T1 construct: HRV 3C protease cleavage site (C); 6His (C, cleaved yes); made in house; host or cells: Sf21 insect cells (baculovirus), secreted
T1 sequence (P19438 30-211): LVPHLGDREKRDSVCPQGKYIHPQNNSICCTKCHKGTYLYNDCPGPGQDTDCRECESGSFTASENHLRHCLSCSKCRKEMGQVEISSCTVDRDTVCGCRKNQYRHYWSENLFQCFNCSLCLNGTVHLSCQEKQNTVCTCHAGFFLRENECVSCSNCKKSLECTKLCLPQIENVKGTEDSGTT
In words: SPR binding affinity to captured human TNFR1 ECD. The gist of the method:
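Peptides are tested against captured biotin-tagged human TNFR1 ECD, with parallel TNFR2 ECD binding to check selectivity. Buffer: 10 mM HEPES pH 7.4, 150 mM NaCl, 3 mM EDTA, 0.05% P20, 2% DMSO.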

The target of test [2] is T2, TNFα-induced NF-κB signal transduction pathway (TNFR1 signaling) in THP-1 cells (Homo sapiens, UniProt P19438).
T2 sequence (P19438 30-455): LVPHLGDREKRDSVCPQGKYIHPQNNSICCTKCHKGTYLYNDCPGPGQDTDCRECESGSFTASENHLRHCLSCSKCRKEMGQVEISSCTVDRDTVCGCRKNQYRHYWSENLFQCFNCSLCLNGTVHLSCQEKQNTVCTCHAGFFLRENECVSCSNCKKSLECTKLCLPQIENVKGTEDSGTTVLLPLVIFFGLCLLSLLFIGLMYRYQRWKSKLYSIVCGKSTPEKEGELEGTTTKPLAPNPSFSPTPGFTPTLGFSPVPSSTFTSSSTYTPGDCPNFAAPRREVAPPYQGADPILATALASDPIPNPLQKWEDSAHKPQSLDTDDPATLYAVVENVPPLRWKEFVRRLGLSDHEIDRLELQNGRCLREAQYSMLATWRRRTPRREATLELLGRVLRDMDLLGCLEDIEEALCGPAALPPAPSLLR
In words: THP-1 Lucia NF-κB reporter cell assay, inhibition of TNFα-induced NF-κB signaling. The class given is cell-based. The essentials:
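Inhibition of TNFR1-driven NF-κB activation was measured as luminescence of secreted reporter luciferase following overnight (16-18 h) stimulation with 10 ng/mL TNFα.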

Where [3] appears, read: THP-1 NF-κB Lucia reporter cells, 10 ng/mL TNFα, 16-18 h, secreted luciferase; read-out: THP-1 IC50.

pIC50, pKd: −log10 of the molar value. Read-outs that look alike come from different tables or passages of the source. Numbered stars: 1 amine (or outer) side, 2 acyl side, 3 side chain; on linkers, the order of the positions; unused ones are H or OH. Bridge positions count the residues as written; N and C are the ends. Square brackets hold non-standard residues; d marks the D form. Peptide text beside a SMILES is read from it. * marks the point of attachment. Trp(βS-Me,7-OMe) = COc1cccc2c([C@H](C)[C@H](N)C(=O)O)c[nH]c12; Trp(7-Cl) = N[C@@H](Cc1c[nH]c2c(Cl)cccc12)C(=O)O; Phe(4-COOH) = N[C@@H](Cc1ccc(C(=O)O)cc1)C(=O)O; Trp(7-aza) = N[C@@H](Cc1c[nH]c2ncccc12)C(=O)O; Phe(4-CH2NH2) = NCc1ccc(C[C@H](N)C(=O)O)cc1; αMeW = C[C@](N)(Cc1c[nH]c2ccccc12)C(=O)O; X1 = O=C([C@@H]1CC[C@H](N[*:1])C1)[*:2]; X6 = O=C([C@@H](N[*:1])C1(O)CC1)[*:2]; Pip(4-aza) = O=C(O)[C@@H]1CNCCN1; 4Pal = N[C@@H](Cc1ccncc1)C(=O)O; NMeE = CN[C@@H](CCC(=O)O)C(=O)O; αMeS = C[C@](N)(CO)C(=O)O; Carboxymethyl = O=C(O)C*; Nle = CCCC[C@H](N)C(=O)O; Sar = CNCC(=O)O

As for `CCCC[C@@H]1NC(=O)CSC[C@@H](C(N)=O)NC(=O)[C@](C)(Cc2c[nH]c3ccccc23)NC(=O)CN(C)C(=O)[C@H](Cc2ccc(O)cc2)NC(=O)[C@H](Cc2ccc(C(=O)O)cc2)NC(=O)[C@](C)(CO)NC(=O)[C@H](Cc2c[nH]c3c(Cl)cccc23)NC(=O)[C@H](Cc2ccncc2)NC(=O)[C@H](CC(N)=O)NC(=O)[C@H](CCC(=O)O)N(C)C(=O)[C@H](Cc2c[nH]c3ncccc23)NC(=O)[C@H](C2(O)CC2)NC(=O)[C@H](Cc2ccncc2)NC1=O` [SEQ ID NO. 281] ({CH2CO}-[Nle][4Pal][X6][Trp(7-aza)][NMeE]N[4Pal][Trp(7-Cl)][αMeS][Phe(4-COOH)]Y[Sar][αMeW]C-NH2; thioether N-14), the pKd in test [1] was 9.30. For the same molecule, the pIC50 in test [2] (setting [3]) is 8.08.
`CCCC[C@@H]1NC(=O)CSC[C@@H](C(N)=O)NC(=O)[C@](C)(Cc2c[nH]c3ccccc23)NC(=O)CN(C)C(=O)[C@H](Cc2ccc(O)cc2)NC(=O)[C@H](Cc2ccc(OCC(=O)O)cc2)NC(=O)[C@](C)(CO)NC(=O)[C@H](Cc2c[nH]c3c(Cl)cccc23)NC(=O)[C@H](Cc2ccncc2)NC(=O)[C@H](CC(N)=O)NC(=O)[C@H](CCC(=O)O)N(C)C(=O)[C@H](Cc2c[nH]c3ncccc23)NC(=O)[C@H](CO)NC(=O)[C@H](Cc2ccc(CN)cc2)NC1=O` [SEQ ID NO. 283] ({CH2CO}-[Nle][Phe(4-CH2NH2)]S[Trp(7-aza)][NMeE]N[4Pal][Trp(7-Cl)][αMeS]Y(Carboxymethyl)Y[Sar][αMeW]C-NH2; thioether N-14) had a pKd in test [1] of 9.30. Besides, the pIC50 in test [2] (setting [3]) was 8.19.
In test [1], `CCCC[C@@H]1NC(=O)[C@@H]2CC[C@@H](C2)NC(=O)[C@H]([C@@H](C)c2c[nH]c3c(OC)cccc23)NC(=O)CN(C)C(=O)[C@H](Cc2ccc(O)cc2)NC(=O)[C@H](Cc2ccc(C(=O)O)cc2)NC(=O)[C@](C)(CO)NC(=O)[C@H](Cc2c[nH]c3c(Cl)cccc23)NC(=O)[C@H](Cc2ccc(C(=O)O)cc2)NC(=O)[C@H](CC(N)=O)NC(=O)[C@H](CCC(=O)O)N(C)C(=O)[C@H](Cc2c[nH]c3ccccc23)NC(=O)[C@@H]2CNCCN2C(=O)[C@H](Cc2ccncc2)NC1=O` [SEQ ID NO. 288] (cyclo([4Pal][Pip(4-aza)]W[NMeE]N[Phe(4-COOH)][Trp(7-Cl)][αMeS][Phe(4-COOH)]Y[Sar][Trp(βS-Me,7-OMe)][X1][Nle])) showed a pKd of 10.00. For the same molecule, the pIC50 in test [2] (setting [3]) is 8.38.
In test [1], `CN1CC(=O)N[C@@H](CC(N)=O)C(=O)N[C@@H](Cc2ccc(O)cc2)C(=O)N[C@@H](Cc2c[nH]c3ccccc23)C(=O)N[C@@H](CO)C(=O)N[C@@H](Cc2ccc(O)cc2)C(=O)N[C@@H](Cc2ccc(O)cc2)C(=O)N(C)CC(=O)N[C@@H](Cc2c[nH]c3ccccc23)C(=O)N[C@H](C(=O)NCC(=O)N[C@@H](CCC(=O)O)C(=O)N[C@@H](CCC(=O)O)C(N)=O)CSCC(=O)N[C@@H](Cc2ccccc2)C(=O)N[C@@H](Cc2ccc(O)cc2)C(=O)N[C@@H](CO)C(=O)N[C@@H](Cc2c[nH]c3ccccc23)C1=O` [SEQ ID NO. 289] ({CH2CO}-FYSW[Sar]NYWSYY[Sar]WCGEE-NH2; thioether N-14) had a pKd of 8.13. In addition, the pIC50 in test [2] (read-out: THP-1 IC50; THP-1 NF-κB Lucia reporter cells, 10 ng/mL TNFα, 16-18 h, secreted luciferase) was 7.44.

Source of the values: patent US20240287138A1, “CYCLIC PEPTIDES FOR INHIBITING TNF RECEPTOR 1 ACTIVITY” (Merck Sharp & Dohme LLC, priority 2023, published 2024).
